Data from PubChem BioAssay (NCI).
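In this assay, cells in 96-well plates receive the compound at five concentrations for 48 hours. Endpoints are linearly interpolated between the surrounding concentrations. GI50: concentration for 50% inhibition of growth. At the TGI there is no net growth.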

Columns and labels:
Test in all cases: DTP human tumour cell line panel, 48 h
[1] = test system: SN12C renal
[2] = test system: HL-60(TB) leukemia
[3] = test system: COLO 205 colon
[4] = test system: SNB-75 CNS
[5] = test system: UACC-62 melanoma
[6] = test system: NCI-H522 lung
[7] = test system: PC-3 prostate
[8] = test system: HOP-62 NSCLC
[9] = test system: SK-OV-3 ovarian
[10] = test system: RXF 393 renal
[11] = test system: MALME-3M melanoma
[12] = test system: MDA-MB-435
[13] = test system: CCRF-CEM leukemia
[14] = test system: SK-MEL-5 melanoma
[15] = test system: SK-MEL-28 melanoma
[16] = test system: A549 NSCLC
[17] = test system: SNB-19 CNS
[18] = test system: LOX IMVI melanoma
[19] = test system: NCI-H460 lung
[20] = test system: IGROV1 ovarian
[21] = test system: NCI/ADR-RES ovarian
[22] = test system: OVCAR-8 ovarian
[23] = test system: MCF7 breast
[24] = test system: CAKI-1 renal
[25] = test system: SK-MEL-2 melanoma
[26] = test system: T-47D breast
[27] = test system: SF-539 CNS
[28] = test system: HT29 colon
[29] = test system: SR leukemia
[30] = test system: OVCAR-5 ovarian
[31] = test system: U251 CNS
[32] = test system: NCI-H23 lung
[33] = test system: UACC-257 melanoma
[34] = test system: UO-31 renal
[35] = test system: HS 578T breast
[36] = test system: HCT-116 colon
[37] = test system: BT-549 breast
[38] = test system: 786-0 renal
[39] = test system: RPMI-8226 leukemia
[40] = test system: TK-10 renal
[41] = test system: HOP-92 NSCLC
[42] = test system: MDA-MB-231 breast
[43] = test system: K-562 leukemia
[44] = test system: OVCAR-4 ovarian
[45] = test system: OVCAR-3 ovarian
[46] = test system: DU-145 prostate
[47] = test system: MOLT-4 leukemia

Molecule Cc1ccc(NC2=N[C@]34CC(=O)CC[C@]3(C)[C@H]3CC[C@]5(C)C(=O)CC[C@H]5[C@@H]3C[C@@H]4S2)c(C)c1 has a GI50 [1] of 2.17 µM, a TGI [1] of 5.07 µM and a GI50 [2] of 2.47 µM. For the same molecule, the TGI [2] was 6.03 µM, the GI50 [3] was 2.5 µM and the TGI [3] was 6.54 µM. It also gave a GI50 [4] of 2.19 µM, a TGI [4] of 97.5 µM and a GI50 [5] of 1.72 µM. The TGI [5] was 3.94 µM, the GI50 [6] was 1.68 µM and the TGI [6] was 3.28 µM. The GI50 [7] was 1.86 µM, the TGI [7] was 4.53 µM and the GI50 [8] was 2.43 µM. It also gave a TGI [8] of 6.92 µM, a GI50 [9] of 9.85 µM and a TGI [9] greater than 100 µM. The GI50 [10] was 1.74 µM, the TGI [10] was 3.23 µM and the GI50 [11] was 1.99 µM. The TGI [11] was 5.55 µM, the GI50 [12] was 3.02 µM and the TGI [12] was greater than 100 µM. For the same molecule, the GI50 [13] was 2.45 µM, the TGI [13] was greater than 100 µM and the GI50 [14] was 1.86 µM. For the same molecule, the TGI [14] was 3.73 µM, the GI50 [15] was 2.31 µM and the TGI [15] was 6.08 µM. It also gave a GI50 [16] of 3.5 µM, a TGI [16] greater than 100 µM and a GI50 [17] of 2.12 µM. For the same molecule, the TGI [17] was 5.09 µM, the GI50 [18] was 1.64 µM and the TGI [18] was 3.13 µM. For the same molecule, the GI50 [19] was 2.7 µM, the TGI [19] was 8.39 µM and the GI50 [20] was 2.11 µM. The TGI [20] was 5.14 µM, the GI50 [21] was 2.91 µM and the TGI [21] was greater than 100 µM. The GI50 [22] was 2.63 µM, the TGI [22] was 7.26 µM and the GI50 [23] was 2.31 µM. For the same molecule, the TGI [23] was greater than 100 µM, the GI50 [24] was 2.83 µM and the TGI [24] was greater than 100 µM. For the same molecule, the GI50 [25] was 2.19 µM, the TGI [25] was 4.74 µM and the GI50 [26] was 2.89 µM. The TGI [26] was greater than 100 µM, the GI50 [27] was 1.62 µM and the TGI [27] was 3.08 µM. For the same molecule, the GI50 [28] was 2.55 µM, the TGI [28] was 7.04 µM and the GI50 [29] was 2.32 µM. The TGI [29] was greater than 100 µM, the GI50 [30] was 2.9 µM and the TGI [30] was greater than 100 µM. For the same molecule, the GI50 [31] was 1.69 µM, the TGI [31] was 3.21 µM and the GI50 [32] was 2.01 µM. For the same molecule, the TGI [32] was 4.85 µM, the GI50 [33] was 3.7 µM and the TGI [33] was greater than 100 µM. It also gave a GI50 [34] of 1.34 µM, a TGI [34] of 2.86 µM and a GI50 [35] of 3.75 µM. The TGI [35] was greater than 100 µM, the GI50 [36] was 1.49 µM and the TGI [36] was 2.85 µM. It also gave a GI50 [37] of 1.49 µM, a TGI [37] of 2.94 µM and a GI50 [38] of 1.62 µM. The TGI [38] was 3.07 µM, the GI50 [39] was 2.43 µM and the TGI [39] was 6.25 µM. For the same molecule, the GI50 [40] was 2.46 µM, the TGI [40] was 6.7 µM and the GI50 [41] was 1.72 µM. It also gave a TGI [41] of 3.86 µM, a GI50 [42] of 2.33 µM and a TGI [42] of 7.92 µM. The GI50 [43] was 2.86 µM, the TGI [43] was greater than 100 µM and the GI50 [44] was 3.83 µM. The TGI [44] was greater than 100 µM, the GI50 [45] was 2.18 µM and the TGI [45] was 5.03 µM. For the same molecule, the GI50 [46] was 2.04 µM, the TGI [46] was 5.18 µM and the GI50 [47] was 2.49 µM. For the same molecule, the TGI [47] was greater than 100 µM.
